Patent US8338482B2, “Modulating notch1 signaling pathway for treating neuroendocrine tumors” (Wisconsin Alumni Research Foundation, priority 2007, dated 2012)

Key:
[1] = test system: BON human GI carcinoid cancer cells; assay: Western blot analysis of GI carcinoid cells; assay type: cell-based
Method: Cell Culture BON human GI carcinoid cancer cells, kindly provided by Drs. B. Mark Evers and Courtney M. Townsend, Jr.
Total protein concentrations were quantified with a bicinchoninic acid assay kit (Pierce Biotechnology, Rockford, Ill., USA). Denatured cellular extracts were resolved by SDS-PAGE, transferred to nitrocellulose membranes (Schleicher and Schuell, Keene, N.H., USA), blocked in milk, and incubated with appropriate antibodies. The antibody dilutions were: 1:1,000 for Notch1 (Santa Cruz Biotechnology, Santa Cruz, Calif., USA), mammalian achaete-scute homolog 1 (ASCL1; BD Biosciences, San Diego, Calif., USA), chromogranin A (Zymed Laboratories, San Francisco, Calif., USA), and cyclin D1 (Cell Signaling Technology, Danvers, Mass., USA), 1:2,000 for p21 (Cell Signaling Technology) and p27 (Santa Cruz Biotechnology), and 1:10,000 for glyceraldehyde-3-phosphate dehydrogenase (G3PDH; Trevigen, Gaithersburg, Md., USA). Horseradish peroxidase conjugated goat anti-rabbit or goat anti-mouse secondary antibodies (Pierce Biotechnology) were used depending on the source of the primary antibody. For visualization of the protein signal, Immunstar (Bio-Rad Laboratories, Hercules, Calif., USA) or SuperSignal West Femto (Pierce Biotechnology) kits were used per the manufacturer's instructions.
Cell Culture BON human gastrointestinal (GI) carcinoid tumor cells, kindly provided by Drs. B. Mark Evers and Courtney M. Townsend, Jr.
Total protein concentrations were quantified with a bicinchoninic acid assay kit (Pierce Biotechnology, Rockford, Ill.). Denatured cellular extracts were resolved by SDS-PAGE, transferred onto nitrocellulose membranes (Schleicher and Schuell, Keene, N H), blocked in milk, and incubated with appropriate antibodies. The antibody dilutions were: 1:1,000 for Notch1 (Santa Cruz Biotechnology, Santa Cruz, Calif.), mammalian achaete-scute homolog 1 (ASCL1; BD Biosciences, San Diego, Calif.), chromogranin A (Zymed Laboratories, San Francisco, Calif.), and cyclin D1 (Cell Signaling Technology, Danvers, Mass.), 1:2,000 for p21 (Cell Signaling Technology) and p27 (Santa Cruz Biotechnology), and 1:10,000 for glyceraldehyde-3-phosphate dehydrogenase (G3PDH; Trevigen, Gaithersburg, Md.). Horseradish peroxidase conjugated goat anti-rabbit or goat anti-mouse secondary antibodies (Pierce Biotechnology) were used depending on the source of the primary antibody. For visualization of the protein signal, Immunstar (Bio-Rad Laboratories, Hercules, Calif.) or SuperSignal West Femto (Pierce Biotechnology) kits were used per the manufacturer's instructions.

[2] = test system: BON cells; assay: Subcutaneous GI carcinoid xenograft study; assay type: in vivo, mice; conditions: 366 mg/kg daily i.p., 20 days
Method: Xenograft Studies BON cells (1×10^6) were suspended in Hanks' balanced salt solution (Invitrogen) and injected subcutaneously into the right flank of 12 male nude athymic NU/NU mice (Charles River Laboratories, Wilmington, Mass.) under anesthesia. After palpable tumors developed, the mice were divided into 2 groups of 6 animals. The control group received daily intraperitoneal (i.p.) injections of saline while the treatment group received daily i.p. injections of VPA (366 mg/kg) for 20 days. The length and width of tumors were measured with a vernier caliper every 4 days and tumor volumes were calculated using the formula, volume=width^2×length×0.52. At the end of the experiment the mice were sacrificed and the tumors were resected and frozen in liquid nitrogen. Whole tumor cell protein lysates were prepared for immunoblotting as previously described (Vaccaro A et al., In-vivo activation of Raf-1 inhibits tumor growth and development in a xenograft model of human medullary thyroid cancer. Anticancer Drugs 2006; 17:849-853). This experiment was performed in accordance with the protocols of the University of Wisconsin Medical School Animal Care and Use Committee.

[3] = Serum VPA level in xenograft mice; assay type: in vivo; conditions: nude athymic NU/NU, mouse, ip, two hours after i.p. injection, last day, 366 mg/kg, read-out: median serum VPA level
Method: After confirming that VPA activates Notch1 signaling and suppresses carcinoid cell growth in vitro, we were interested in testing its efficacy in vivo. Subcutaneous human GI carcinoid tumors were developed in immunocompromised mice, which were then given daily intraperitoneal injections of VPA, and the tumors were measured every 4 days for 20 days. The tumors of the saline-treated control mice grew at a higher rate than did those of the VPA-treated animals (FIG. 28A). Indeed, the growth of the tumors in the treatment group was almost static. On the last day of the experiment, blood was drawn from each animal in the treatment group two hours after intraperitoneal injection of VPA.

With `CCCC(CCC)C(=O)O` [VPA, 2-propylpentanoic acid] the ASCL1 protein ([1]; VPA) was “dose-dependent decrease”, the “full-length Notch1 and NICD” value ([1]; VPA 0-4 mM, 2 days) was “increase” and the “protein levels of p21 and p27” value ([1]; VPA 1 mM) was “increase in protein levels”. The “cyclin D1 level” value ([1]; VPA 4 mM, 4 days) was “almost undetectable”, the “protein levels of CgA” value ([1]; VPA, two days) was “decreased” and the “growth of the tumors” value [2] was “almost static”. For the same compound, the neurotoxicity [2] was “no signs of neurotoxicity”, the “expression of ASCL1 in resected tumors” value ([2]; Western blot) was “decreased expression” and the concentration at 2 h [3] was 46000 ng/mL.
